From the supplement of paper PMC11061612

Columns and labels:
[1] = system: RPMI-6666 (Non-Cancerous); experiment: combination Emax (second highest fraction inhibited in the dose matrix, 72 h); higher = more inhibition; extreme values may be limits of the assay
Procedure, shortened: (§1)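 Bliss excess equals the observed combination effect minus the expected value EA + EB − EA·EB, where EA and EB are the effects of each agent alone. Combination Emax is the second-highest inhibition within the matrix. Inhibition was scaled from CellTiter-Glo 2.0 luminescence, with 0 set by vehicle wells and 1 by blank wells, after 72 hours of two-drug dosing of cells plated in 1536-well plates.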

[2] = system: EN (Endometrial Carcinoma); experiment: as above
Procedure, shortened: as §1

[3] = system: OC-314 (Ovarian Carcinoma); experiment: as above
Procedure, shortened: as §1

[4] = system: MDA-MB-468 (Breast Carcinoma); experiment: as above
Procedure, shortened: as §1

[5] = system: K5 (Thyroid Gland Carcinoma); experiment: as above
Procedure, shortened: as §1

[6] = system: SW1271 (Small Cell Lung Carcinoma); experiment: as above
Procedure, shortened: as §1

[7] = system: RT-112 (Bladder Carcinoma); experiment: as above
Procedure, shortened: as §1

[8] = system: PCI-30 (Head and Neck Carcinoma); experiment: as above
Procedure, shortened: as §1

[9] = system: LU-139 (Small Cell Lung Carcinoma); experiment: as above
Procedure, shortened: as §1

SH-4 (Melanoma) = experiment: as above
Procedure, shortened: as §1

[10] = system: EN (Endometrial Carcinoma); experiment: Bliss excess, mean over the matrix (fraction); higher = more synergy
Procedure, shortened: as §1

[11] = system: OC-314 (Ovarian Carcinoma); experiment: as above
Procedure, shortened: as §1

[12] = system: NCI-H69 (Small Cell Lung Carcinoma); experiment: as above
Procedure, shortened: as §1

[13] = system: MDA-MB-468 (Breast Carcinoma); experiment: as above
Procedure, shortened: as §1

[14] = system: K5 (Thyroid Gland Carcinoma); experiment: as above
Procedure, shortened: as §1

[15] = system: SU-DHL-6 (B-Cell Non-Hodgkin's Lymphoma); experiment: as above
Procedure, shortened: as §1

[16] = system: RT-112 (Bladder Carcinoma); experiment: as above
Procedure, shortened: as §1

NCI-H2461 (Mesothelioma) = experiment: as above
Procedure, shortened: as §1

[17] = system: HDLM-2 (Hodgkin's Lymphoma); experiment: as above
Procedure, shortened: as §1

[18] = system: CAPAN-1 (Pancreatic Carcinoma); experiment: as above
Procedure, shortened: as §1

Row | Structure (SMILES) | combination Emax [1] | combination Emax [2] | combination Emax [3] | combination Emax [4] | combination Emax [5] | combination Emax [6] | combination Emax [7] | combination Emax [8] | combination Emax [9] | combination Emax (SH-4 (Melanoma)) | Bliss excess [10] | Bliss excess [11] | Bliss excess [12] | Bliss excess [13] | Bliss excess [14] | Bliss excess [15] | Bliss excess [16] | Bliss excess (NCI-H2461 (Mesothelioma)) | Bliss excess [17] | Bliss excess [18]
1 | CN(CCO)CC[C@H](CSc1ccccc1)Nc1ccc(S(=O)(=O)NC(=O)c2ccc(N3CCC([C@@H](O)c4ccccc4-c4ccc(Cl)cc4)CC3)cc2)cc1S(=O)(=O)C(F)(F)F [AZD4320] + CC(=O)O[C@H]1C(=O)[C@@]2(C)[C@H]([C@H](OC(=O)c3ccccc3)[C@]3(O)C[C@H](OC(=O)[C@H](O)[C@@H](NC(=O)c4ccccc4)c4ccccc4)C(C)=C1C3(C)C)[C@]1(OC(C)=O)CO[C@@H]1C[C@@H]2O [Paclitaxel] (first compound max 1 µM, 7x7, partner max 3 µM) | 1 | 0.757 | 1 | 0.881 | 0.94 | 0.927 | 0.991 | 0.875 | 0.964 | 0.531 | 0.068 | 0.0084 | 0.0089 | 0.0898 | 0.0018 | 0.0083 | 0.0111 | 0.0571 | 0.0159 | 0.0823
2 | N#Cc1cnc(Nc2cc(NC[C@H]3CNCCO3)c(C(F)(F)F)cn2)cn1 [SRA737] + C=CCn1c(=O)c2cnc(Nc3ccc(N4CCN(C)CC4)cc3)nc2n1-c1cccc(C(C)(C)O)n1 [AZD1775] (first compound max 10 µM, partner max 1 µM) | 0.865 | 0.696 | 0.928 | 0.642 | 0.395 | 0.488 | 0.954 | 0.687 | 0.564 | 0.656 | 0.0422 | 0.165 | 0.0231 | 0.0705 | -0.0051 | 0.131 | 0.107 | 0.0428 | -0.0363 | -0.0663
3 | C[C@@H](Nc1cc(F)cc(F)c1)c1cc(C(=O)N(C)C)cc2c(=O)cc(N3CCOCC3)oc12 [AZD8186] + C1CN(CCC1(C(=O)N[C@@H](CCO)C2=CC=C(C=C2)Cl)N)C3=NC=NC4=C3C=CN4 [AZD5363] (first compound max 10 µM, 7x7, partner max 10 µM) | 0.672 | 0.536 | 0.562 | 0.571 | 0.466 | 0.289 | 0.254 | 0.313 | 0.0726 | 0.214 | 0.0157 | 0.0624 | -0.0566 | -0.0305 | -0.062 | 0.0024 | -0.0188 | -0.0449 | -0.0194 | -0.0755
4 | C[C@@H]1COCCN1c1cc(C2([S@](C)(=N)=O)CC2)nc(-c2ccnc3[nH]ccc23)n1 [AZD6738] + Nc1ccn([C@@H]2O[C@H](CO)[C@@H](O)C2(F)F)c(=O)n1 [Gemcitabine] (first compound max 10 µM, 7x7, partner max 0.3 µM) | 0.936 | 0.66 | 0.993 | 0.767 | 0.778 | 0.7 | 0.936 | 0.795 | 0.841 | 0.623 | 0.0613 | 0.115 | 0.035 | 0.0233 | 0.034 | 0.118 | 0.147 | -0.0436 | 0.0754 | -0.0254
5 | CN(CCO)CC[C@H](CSc1ccccc1)Nc1ccc(S(=O)(=O)NC(=O)c2ccc(N3CCC([C@@H](O)c4ccccc4-c4ccc(Cl)cc4)CC3)cc2)cc1S(=O)(=O)C(F)(F)F [AZD4320] + CS(=O)(=O)CCNCc1ccc(-c2ccc3ncnc(Nc4ccc(OCc5cccc(F)c5)c(Cl)c4)c3c2)o1 [Lapatinib] (first compound max 1 µM, 7x7, partner max 10 µM) | 0.951 | 0.229 | 0.729 | 0.963 | 0.355 | 0.484 | 0.351 | 0.369 | 0.985 | 0.239 | -0.0532 | 0.0535 | 0.0363 | -0.0457 | 0.0213 | 0.0749 | 0.0152 | 0.0115 | -0.0018 | -0.021
6 | O=C(c1cc(Cc2n[nH]c(=O)c3ccccc23)ccc1F)N1CCN(C(=O)C2CC2)CC1 [Olaparib] + CC1(C)CCC(CN2CCN(c3ccc(C(=O)NS(=O)(=O)c4ccc(NCC5CCOCC5)c([N+](=O)[O-])c4)c(Oc4cnc5[nH]ccc5c4)c3)CC2)=C(c2ccc(Cl)cc2)C1 [Venetoclax] (first compound max 10 µM, 7x7, partner max 1 µM) | 0.72 | 0.29 | 0.188 | 0.314 | 0.156 | 0.201 | 0.0956 | 0.173 | 0.655 | 0.148 | -0.0025 | -0.0124 | 0.158 | -0.0372 | -0.0388 | 0.104 | -0.0275 | -0.0373 | 0.0921 | -0.0564
7 | Cc1cc2ncnn2cc1Nc1ncc2c(n1)n(C1CCOCC1)c(=O)n2C [AZD7648] + COc1cc([C@@H]2c3cc4c(cc3[C@@H](O[C@@H]3O[C@@H]5CO[C@@H](C)O[C@H]5[C@H](O)[C@H]3O)[C@H]3COC(=O)[C@H]23)OCO4)cc(OC)c1O [Etoposide] (first compound max 10 µM, 7x7, partner max 10 µM) | 0.958 | 0.481 | 0.978 | 0.657 | 0.64 | 0.475 | 0.798 | 0.553 | 0.875 | 0.492 | 0.0565 | 0.152 | 0.0783 | 0.0376 | 0.1 | 0.0914 | 0.17 | 0.0136 | -0.0015 | -0.0034
8 | Cc1c2c(nn1C)CSCc1cc(n(C)n1)CSc1cc(c3ccccc3c1)OCCCc1c(C(=O)O)n(C)c3c-2c(Cl)ccc13 [AZD5991] + Nc1ccn([C@@H]2O[C@H](CO)[C@@H](O)C2(F)F)c(=O)n1 [Gemcitabine] (first compound max 1 µM, 7x7, partner max 0.3 µM) | 0.947 | 0.602 | 0.917 | 0.707 | 0.544 | 0.604 | 0.834 | 0.559 | 0.855 | 0.495 | -0.0535 | -0.0084 | -0.0178 | -0.0097 | -0.045 | 0.0242 | 0.0012 | -0.0432 | 0.0014 | -0.0092
9 | CN(CCO)CC[C@H](CSc1ccccc1)Nc1ccc(S(=O)(=O)NC(=O)c2ccc(N3CCC([C@@H](O)c4ccccc4-c4ccc(Cl)cc4)CC3)cc2)cc1S(=O)(=O)C(F)(F)F [AZD4320] + Nc1ccn([C@@H]2O[C@H](CO)[C@@H](O)C2(F)F)c(=O)n1 [Gemcitabine] (first compound max 1 µM, 7x7, partner max 0.3 µM) | 0.985 | 0.337 | 0.989 | 0.799 | 0.688 | 0.872 | 0.507 | 0.743 | 0.961 | 0.642 | -0.0382 | 0.0434 | -0.0064 | -0.0034 | 0.0121 | -0.0131 | -0.0057 | 0.0285 | 0.0204 | 0.0166
10 | N#Cc1cnc(Nc2cc(NC[C@H]3CNCCO3)c(C(F)(F)F)cn2)cn1 [SRA737] + O=c1[nH]cc(F)c(=O)[nH]1 [5-Fluorouracil] (first compound max 10 µM, 7x7, partner max 20 µM) | 0.901 | 0.483 | 0.902 | 0.344 | 0.451 | 0.156 | 0.712 | 0.226 | 0.356 | 0.383 | -0.0338 | 0.114 | -0.0461 | -0.0199 | -0.0459 | 0.0498 | 0.0881 | -0.0256 | 0.0758 | 0.0479
11 | C[C@@H](Oc1cc(-c2cnn(C3CCNCC3)c2)cnc1N)c1c(Cl)ccc(F)c1Cl [Crizotinib] + CC1=C(C(=CC=C1)Cl)NC(=O)C2=CN=C(S2)NC3=CC(=NC(=N3)C)N4CCN(CC4)CCO [Dasatinib] (first compound max 10 µM, 7x7, partner max 2 µM) | 0.686 | 0.389 | 0.838 | 0.776 | 0.81 | 0.714 | 0.974 | 0.721 | 0.688 | 0.556 | -0.0798 | 0.032 | 0.0403 | 0.0256 | -0.0107 | -0.0146 | 0.0179 | -0.0186 | -0.0228 | -0.0481
